“Also recorded” adds a separate entry of the source.

For series [1], the system named is pig-a gene. In words: pig-a mutant erythrocyte frequency measured with and without aerolysin selective lysis, using counting beads (Example 3). The series is classed as in vivo, Sprague-Dawley rat. As to conditions: female rats; ENU 100 mg/kg/day or DMBA 40 mg/kg/day on three days; blood 6 weeks thereafter; vs untreated; FIG. 5. As for the experimental part: Blood samples are obtained and processed (labeling with fluorochromes) as described above. Specimens were subsequently divided to provide pig-a mutant erythrocyte frequency measurements made with and without the use of aerolysin. To each of the samples, a small volume of high density microsphere suspension is added. Preferably, between about 10^3 to about 10^6 microspheres/specimen are added. Suitable microspheres are commercially available from a number of sources, including Becton Dickinson, Molecular Probes, and Polysciences. After mixing each sample to ensure a homogeneous suspension, a small aliquot of each cell/microsphere solution is transferred to a tube containing a balanced salt solution such that the resulting dilution yields a density of beads and cells which is low enough so that the rate of particles passing through the detection device yields accurate measurements (e.g., less than about 7,000 events per second for a Becton Dickinson FACSCalibur; higher densities may lead to excessive coincidence, which is multiple particles simultaneously at the fluid stream-laser beam intersection). The other (undiluted) specimen is treated with aerolysin to lyse the majority of non-mutant erythrocytes and reticulocytes. Reticulocyte:bead ratios are measured for both diluted and undiluted/aerolysin-treated samples using, e.g., an optical detection system of the type described above. From these ratios, it is possible to calculate the frequency of mutant reticulocytes per 10^6 reticulocytes.
For example, a small volume of a bead stock suspension (10 μl) is added to a suspension of high density cells that have been stained for a mutation frequency determination (1 ml). A small fraction of the cell/bead suspension is then transferred to a tube containing an isotonic solution such that the resulting density of beads and cells is low enough to prevent excessive coincidence. Flow cytometric analysis then allows for determination of the reticulocyte to bead ratio; for example 7,500 reticulocytes and 100 beads would indicate a ratio of 75 reticulocytes per bead. The aerolysin-treated specimen (with a majority of non-mutant erythrocytes and reticulocytes lysed due to aerolysin) is subsequently analyzed. Even while the majority of erythrocytes and reticulocytes have been lysed, it is still possible to analyze 10^6 or more “virtual reticulocytes” by setting the stop mode so that the proportionate number of beads (which are unaffected by aerolysin) have been interrogated. In this example, the stop mode would be set so that data accumulate until 10^6 divided by 75 beads have been acquired, i.e., 13,333 beads. In this manner, it is possible to score the number of mutant reticulocytes per 13,333 beads, or in other words, per 10^6 virtual reticulocytes. […]

Series [2] concerns pig-a gene. The experiment in a line: mutant erythrocytes versus mutant reticulocytes, FSC and FL1 thresholding (Example 5). As to conditions: rats, 100 mg ENU/kg/day or 40 mg DMBA/kg/day three times in one week; 4 weeks post-exposure; vs untreated; FIG. 7. The series is classed as in vivo, rat. An excerpt:
In practice, this means the mutation frequency for entire erythrocyte population and a mutation frequency for the reticulocyte fraction can each be efficiently determined by analyzing each stained blood specimen two times: once at high density with FL1 thresholding, and a second time upon dilution using a FSC threshold setting. In this manner it is possible to efficiently interrogate enough cells (e.g. 10^6 reticulocytes and also 10^6 total erythrocytes) for accurate measures of mutant frequency (see FIGS. 4A-B).
For this experiment, rats were untreated, or exposed to 100 mg ENU/kg/day or 40 mg DMBA/kg/day. These exposures were performed three times in one week (M, W, F). Blood was collected from the tail vein of these animals 4 weeks post-exposure. Blood samples were stained according to the present invention. Specifically, high density blood specimens were contacted with anti-CD59-PE to differentially label mutant and non-mutant erythrocytes, and biotinylated anti-CD61 followed by streptavidin-Cy5-PE as a platelet-specific label used to exclude these particles from analysis. After a washing steps to remove unbound antibodies and streptavidin-Cy5-PE, cells were resuspended in a thiazole orange solution (0.1 μg/ml) and allowed to incubate at room temperature for about 30 minutes. Specimens were placed on ice and protected from light until flow cytometric analysis (within about 4 hours). Cells were analyzed at low density with FSC thresholding, and also at high density with FL1 thresholding. As described in Example 2, this provided mutant frequencies in both the total erythrocyte and the reticulocyte populations.

Series [3] has as its system pig-a gene. The experiment in a line: time course of CD59-negative reticulocyte frequency with FL1 thresholding (Example 4). The series is classed as in vivo, Sprague Dawley rat. An excerpt:
In this case, it is possible to set the threshold parameter to the nucleic acid dye-associated fluorescence channel (e.g., FL1 for thiazole orange), as opposed to the more common forward scatter trigger. When set sufficiently high (that is, above the fluorescence intensity of mature erythrocytes), this can restrict analysis to reticulocytes.
Rather, it must be coupled with the preparation of very high density specimens. When these two adjustments are made, much quicker data acquisition rates are achieved. For instance, by eliminating mature erythrocytes with an FL1 threshold and analyzing specimens prepared at very high cell densities (for example 3×10^8/ml), it is possible to reduce the time needed to acquire 10^6 reticulocytes from 80 minutes to about 5 to 15 minutes.
The use of serial blood specimens also facilitated an assessment of the influence of blood harvest time. For this experiment, Sprague Dawley rats were treated with either vehicle or […] on three days (M, W, F). Blood was collected from the tail vein of these animals before treatment and over a 5 week post-exposure period. After two washing steps, high density blood samples were stained according to the present invention. […] Cells were analyzed according to the FL1 thresholding technique described in Example 2.

The subject of series [4] is pig-a gene. The experiment in a line: three-color flow cytometric scoring of pig-a mutant (CD59-negative) erythrocytes in blood of treated rats (Example 1). The series is classed as in vivo. As to conditions: rat, 100 mg/kg/day for three days at 48 hr intervals; blood several weeks after final administration; FIG. 3E. As for the experimental part: Whole blood specimens (EDTA as anticoagulant) were obtained from the tail vein of vehicle- or ethyl-N-nitrosourea (ENU) treated rats (100 mg/kg/day for three days at 48 hr intervals; blood collected several weeks after the final administration). […] Thereafter, cells were contacted with anti-CD59-PE to differentially label mutant and non-mutant erythrocytes, and biotinylated anti-CD61 followed by streptavidin-Cy5-PE as a platelet-specific label used to exclude these particles from analysis. After washing steps to remove unbound antibodies and unbound streptavidin-Cy5-PE, cells were resuspended in a thiazole orange solution (0.1 μg/ml). Specimens were incubated at room temperature for about 30 minutes, and thereafter were placed on ice until flow cytometric analysis occurred (within about 4 hours).
As shown by FIGS. 3A-E, the labeling procedure was able to successfully discriminate mature erythrocytes and reticulocytes from other cell types, as well as from platelets. Furthermore, it was capable of providing high fluorescent resolution between CD59-negative and CD59-positive erythrocytes, thus facilitating quantification of mutant erythrocyte frequency.
The flow cytometry data acquisition/analysis software (CellQuest v3.3) allowed for configuring alternative gating strategies.
(In general: In flow cytometry, cells or beads pass a laser one at a time.)

With `Cc1c2ccccc2c(C)c2c1ccc1ccccc12` [DMBA, 7,12-dimethyl-1,2-benz[a]anthracene], in the series with pig-a gene [1], the “mutant erythrocyte (CD59-negative) frequency, analysis with aerolysin to enrich for mutants” value is “significant increases” and the “mutant erythrocyte (CD59-negative) frequency, analysis without aerolysin” value was “significant increases”. In the series on pig-a gene [2], the “frequency of CD59-negative erythrocytes (total erythrocyte population)” value was “greatly elevated” and the “frequency of CD59-negative reticulocytes” value is reported as “greatly elevated”.

As for `CCN(N=O)C(N)=O` [ENU, ethyl-N-nitrosourea], the “CD59- (mutant) reticulocyte frequency” value with pig-a gene [3] (rats, 100 mg ENU/mg/day on three days, 5 week post-exposure period, three animals, vs vehicle, FIG. 6) is “greatly elevated; also recorded: markedly elevated”. In addition, the “time of maximal mutant reticulocyte frequency” value with pig-a gene [3] (two of the three ENU-treated animals (E2 and E3), animal E1 continued to rise through week 5) was determined as 4 week. Further, in the series with pig-a gene [1], the “mutant erythrocyte (CD59-negative) frequency, analysis with aerolysin to enrich for mutants” value is on record as “significant increases” and the “mutant erythrocyte (CD59-negative) frequency, analysis without aerolysin” value is on record as “significant increases”. Also, in the series with pig-a gene [4], the “frequency of mutant (CD59-negative) erythrocytes” value is “relatively high frequency of mutant erythrocytes”. In addition, in the series with pig-a gene [2], the “frequency of CD59-negative erythrocytes (total erythrocyte population)” value is “greatly elevated” and the “frequency of CD59-negative reticulocytes” value is “greatly elevated”.

These data come from patent publication US8062860B2, “Kit for measuring in vivo mutation frequency at an endogenous gene locus” (Litron Laboratories, Ltd., priority 2006, dated 2011).
